# Laboratory results as given in PubChem BioAssay AID2060504 (Molecular Pharmacology Branch, DTP, NCI, 2025).
# Tested on: 636577-100-R-J1-PDC complex spheroid viability
# Assay: Anticancer human tumor 636577-100-R-J1-PDC patient-derived endometrial adenocarcinoma cell line growth inhibition [GQUAD]
# Conditions: for IC50: curve of first compound; for viability, T/C: stronger effect = lower value
# Source text: DNA G-quadruplex Stabilizer Agents in Combinations in Complex Spheroids
# A high-throughput screen of multi-cell type tumor spheroids was designed to identify active combinations of DNA G-quadruplex stabilizer agents and targeted small molecules. Complex spheroids include a stromal component modeled by human endothelial cells (HUVEC) and fibroblasts modeled by human mesenchymal stem cells (MSCs). The concentration ranges selected for each drug and investigational agent were based upon clinically achievable concentrations if the clinical Cmax of the agent was known.
# Compounds. The drugs and investigational agents: pidnarulex (CX-5461; NSC782164), APTO-253 (NSC789042), BRACO-19 (NSC847499), peposertib (NSC802822), ceralasertib (NSC780249), elimusertib (NSC800525), camonsertib (NSC841442), AZD-1390 (NSC803789), olaparib (NSC753686), talazoparib (NSC767125), ART-558 (NSC835418), sotorasib (NSC818433), MRTX-1133 (NSC836407), SN-38 (NSC673596), topotecan (NSC609699), etoposide (NSC141540), doxorubicin (NSC123127), gemcitabine (NSC613327), 5-fluorouracil (NSC19893), paclitaxel (NSC125973), vemurafenib (NSC761431), panobinostat (NSC761190), R-306465 (JNJ-16241199; NSC773264), adavosertib (NSC754352), TP-3654 (NSC805149), carboplatin (NSC241240), KSQ-4279 (NSC840948), and staurosporine (NSC755774) were obtained from the National Cancer Institute (NCI) Developmental Therapeutics Program Chemical Repository (34). The FDA-approved anticancer drug set is available from the NCI Developmental Therapeutics Program. […] The stock solutions were prepared in dimethyl sulfoxide (DMSO, Sigma-Aldrich, St. Louis, MO, cat. D2650) at 800-fold the tested concentration and stored at -70 degrees C prior to their use. All drugs and investigational agents were tested over a range starting from a high concentration at or near the clinical Cmax and decreasing in half-log increments. If the clinical Cmax for an agent had not been determined, the highest concentration tested was 10 microM.
# 2.3 Cell Culture. All cells were maintained in an incubator at 37 degrees C and 5% CO2 with 95% humidity. The PDC lines were cultured according to standard operating procedures established by the NCI PDMR. All PDCs were thawed and cultured in Matrigel-coated flasks prepared with a working solution of 1X Ham's F-12 nutrient mix, without supplementation (Invitrogen, cat. 11765054), 100 U/mL penicillin-streptomycin (Invitrogen, cat. 15140122), and 2.5% Matrigel (Corning Inc., cat. 354248) for the first three passages. The 857933-349-R-J2-PDC line was cultured in 6C/Colon 1B media, which includes advanced DMEM/F-12 (Thermo Fisher Scientific, cat. 12634028), 10 mM HEPES (Thermo Fisher Scientific, cat. 15630080), 1X GlutaMAX supplement (Thermo Fisher Scientific, cat. 35050061), 0.1 mg/mL primocin (InvivoGen, cat. ant-pm-2), 10% defined fetal bovine serum, heat inactivated (HyClone Laboratories Inc., cat. SH30070.03HI), 50% L-WRN conditioned media (ATCC, cat. CRL-3276), 1.25 mM N-Acetyl-L-cysteine (Sigma-Aldrich, cat. A9165), 10 mM nicotinamide (Sigma-Aldrich, cat. N0636), 1X B-27 supplement (Thermo Fisher Scientific, cat. 17504044), 1X N-2 supplement (Thermo Fisher Scientific, cat. 17502048), 10 microM Y-27632 dihydrochloride (Tocris Bioscience, cat. 1254), and 50 ng/mL human EGF recombinant protein (Thermo Fisher Scientific, cat. PHG0311). The 485176-168-R4-J1-PDC line was cultured in Panc media, which includes all 6C/Colon 1B media components plus 100 ng/mL human FGF-10 (Thermo Fisher Scientific, cat. 100-26), 500 nM SB-431542 (Selleckchem, cat. S1067), and gastrin (Tocris, cat. 3006).
# […]
# [1] = second compound 0.0316 µM, first compound 0.0316 µM
# [2] = second compound 0.0316 µM, first compound 0.1 µM
# [3] = second compound 0.0316 µM, first compound 0.316 µM
# [4] = second compound 0.0316 µM, first compound 1 µM
# [5] = second compound 0.0316 µM, first compound 3.16 µM
# [6] = second compound 0.0316 µM, first compound 10 µM
# [7] = second compound 0.1 µM, first compound 0.0316 µM
# [8] = second compound 0.1 µM, first compound 0.1 µM
# [9] = second compound 0.1 µM, first compound 0.316 µM
# [10] = second compound 0.1 µM, first compound 1 µM
# [11] = second compound 0.1 µM, first compound 3.16 µM
# [12] = second compound 0.1 µM, first compound 10 µM
# [13] = second compound 0.316 µM, first compound 0.0316 µM
# [14] = second compound 0.316 µM, first compound 0.1 µM
# [15] = second compound 0.316 µM, first compound 0.316 µM
# [16] = second compound 0.316 µM, first compound 1 µM
# [17] = second compound 0.316 µM, first compound 3.16 µM
# [18] = second compound 0.316 µM, first compound 10 µM
# [19] = second compound 1 µM, first compound 0.0316 µM
# [20] = second compound 1 µM, first compound 0.1 µM
# [21] = second compound 1 µM, first compound 0.316 µM
# [22] = second compound 1 µM, first compound 1 µM
# [23] = second compound 1 µM, first compound 3.16 µM
# [24] = second compound 1 µM, first compound 10 µM
# [25] = second compound 3.16 µM, first compound 0.0316 µM
# [26] = second compound 3.16 µM, first compound 0.1 µM
# [27] = second compound 3.16 µM, first compound 0.316 µM
# [28] = second compound 3.16 µM, first compound 1 µM
# [29] = second compound 3.16 µM, first compound 3.16 µM
# [30] = second compound 3.16 µM, first compound 10 µM
# [31] = second compound 10 µM, first compound 0.0316 µM
# [32] = second compound 10 µM, first compound 0.1 µM
# [33] = second compound 10 µM, first compound 0.316 µM
# [34] = second compound 10 µM, first compound 1 µM
# [35] = second compound 10 µM, first compound 3.16 µM
# [36] = second compound 10 µM, first compound 10 µM
# 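Further: viability read after seven days of drug exposure.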
# 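Wherever viability, T/C is given: luminescence signal used as a proxy for viable cells; 100% = DMSO vehicle control wells.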
smiles,measurement,setting,value
C#Cc1c(F)ccc2cc(O)cc(-c3ncc4c(N5CC6CCC(C5)N6)nc(OCC56CCCN5CC(F)C6)nc4c3F)c12 (centres undefined) + CN(C)c1ccc(Nc2c3ccc(NC(=O)CCN4CCCC4)cc3nc3cc(NC(=O)CCN4CCCC4)ccc23)cc1,IC50,second compound 0.0316 µM,6070 nM
same,IC50,second compound 0.1 µM,3230 nM
same,IC50,second compound 0.316 µM,3860 nM
same,IC50,second compound 1 µM,2430 nM
same,IC50,second compound 3.16 µM,< 31.6 nM
same,IC50,second compound 10 µM,< 31.6 nM
same,"viability, T/C",[1],109%
same,"viability, T/C",[2],84.1%
same,"viability, T/C",[3],95.4%
same,"viability, T/C",[4],69.9%
same,"viability, T/C",[5],72.2%
same,"viability, T/C",[6],37.2%
same,"viability, T/C",[7],98.6%
same,"viability, T/C",[8],94.3%
same,"viability, T/C",[9],85.6%
same,"viability, T/C",[10],68%
same,"viability, T/C",[11],49.4%
same,"viability, T/C",[12],42.5%
same,"viability, T/C",[13],93%
same,"viability, T/C",[14],99.3%
same,"viability, T/C",[15],85.7%
same,"viability, T/C",[16],62.1%
same,"viability, T/C",[17],59.1%
same,"viability, T/C",[18],34.9%
same,"viability, T/C",[19],61%
same,"viability, T/C",[20],75.2%
same,"viability, T/C",[21],70.5%
same,"viability, T/C",[22],61.8%
same,"viability, T/C",[23],46.5%
same,"viability, T/C",[24],29.8%
same,"viability, T/C",[25],41.7%
same,"viability, T/C",[26],37.2%
same,"viability, T/C",[27],38%
same,"viability, T/C",[28],36.4%
same,"viability, T/C",[29],22.7%
same,"viability, T/C",[30],15.7%
same,"viability, T/C",[31],5.81%
same,"viability, T/C",[32],4.81%
same,"viability, T/C",[33],4.89%
same,"viability, T/C",[34],3.78%
same,"viability, T/C",[35],3.21%
same,"viability, T/C",[36],0.66%
CC(C)(O)C1CCC(Nc2ccc3ncc(-c4cccc(C(F)(F)F)c4)n3n2)CC1 (centres undefined) + Cc1[nH]c2ccc(F)cc2c1-c1nc2c3cccnc3c3ncccc3c2[nH]1,IC50,second compound 0.0316 µM,1090 nM
same,IC50,second compound 0.1 µM,981 nM
same,IC50,second compound 0.316 µM,1770 nM
same,IC50,second compound 1 µM,1880 nM
same,IC50,second compound 3.16 µM,< 31.6 nM
same,IC50,second compound 10 µM,< 31.6 nM
same,"viability, T/C",[1],92.8%
same,"viability, T/C",[2],75.9%
same,"viability, T/C",[3],111%
same,"viability, T/C",[4],51.3%
same,"viability, T/C",[5],35.5%
same,"viability, T/C",[6],32.2%
same,"viability, T/C",[7],90.7%
same,"viability, T/C",[8],79.1%
same,"viability, T/C",[9],84.4%
same,"viability, T/C",[10],49%
same,"viability, T/C",[11],33.1%
same,"viability, T/C",[12],26.2%
same,"viability, T/C",[13],60.9%
same,"viability, T/C",[14],54.6%
same,"viability, T/C",[15],82.9%
same,"viability, T/C",[16],62.5%
same,"viability, T/C",[17],34.6%
same,"viability, T/C",[18],39.9%
same,"viability, T/C",[19],69%
same,"viability, T/C",[20],78%
same,"viability, T/C",[21],69.5%
same,"viability, T/C",[22],69.8%
same,"viability, T/C",[23],33.7%
same,"viability, T/C",[24],23.5%
same,"viability, T/C",[25],20.1%
same,"viability, T/C",[26],28.1%
same,"viability, T/C",[27],31.1%
same,"viability, T/C",[28],26.1%
same,"viability, T/C",[29],16.2%
same,"viability, T/C",[30],13.1%
same,"viability, T/C",[31],31.6%
same,"viability, T/C",[32],34.1%
same,"viability, T/C",[33],39%
same,"viability, T/C",[34],37.8%
same,"viability, T/C",[35],17.1%
same,"viability, T/C",[36],15.1%
